# Laboratory results as given in the supplement of paper PMC11061612.
# Experiments:
# [1] = system: SW872 (Other Solid Carcinomas); experiment: Bliss excess, mean over the matrix (fraction); higher = more synergy
# Method in brief: (§1)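 Cell lines in DMEM/F12 or RPMI with 10% FBS were plated in 1536-well plates, held 24 hours at 37°C, 5% CO2, then given two-drug dose matrices for 72 hours (DMSO typically 0.2%). Viability was read by CellTiter-Glo 2.0 luminescence and scaled as inhibition from 0 (vehicle wells) to 1 (blank wells). Combination Emax is the second-highest inhibition in the matrix; Bliss excess is observed combination effect minus expected EA + EB − EA·EB, EA and EB being single-agent effects.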
# [2] = system: A4-Fuk (B-Lymphoblastic Leukemia); experiment: combination Emax (second highest fraction inhibited in the dose matrix, 72 h); higher = more inhibition; extreme values may be limits of the assay
# Method in brief: as §1
# [3] = system: COLO-668 (Small Cell Lung Carcinoma); experiment: as above
# Method in brief: as §1
# [4] = system: Ca-Ski (Cervical Carcinoma); experiment: as above
# Method in brief: as §1
# [5] = system: HAL-01 (B-Lymphoblastic Leukemia); experiment: as above
# Method in brief: as §1
# [6] = system: MDA-MB-453 (Breast Carcinoma); experiment: as above
# Method in brief: as §1
# [7] = system: NCI-H1355 (Lung Adenocarcinoma); experiment: as above
# Method in brief: as §1
# [8] = system: OE33 (Esophageal Adenocarcinoma); experiment: as above
# Method in brief: as §1
# [9] = system: SNU-387 (Hepatocellular Carcinoma); experiment: as above
# Method in brief: as §1
# [10] = system: SW872 (Other Solid Carcinomas); experiment: as above
# Method in brief: as §1
# 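Wherever Bliss excess, mean over the matrix is given: after 72 h of two-drug dosing.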
Structure (SMILES),Bliss excess [1],combination Emax [2],combination Emax [3],combination Emax [4],combination Emax [5],combination Emax [6],combination Emax [7],combination Emax [8],combination Emax [9],combination Emax [10]
"C=CCn1c(=O)c2cnc(Nc3ccc(N4CCN(C)CC4)cc3)nc2n1-c1cccc(C(C)(C)O)n1 [AZD1775] + CCc1c2c(nc3ccc(O)cc13)-c1cc3c(c(=O)n1C2)COC(=O)[C@]3(O)CC [SN-38] (first compound max 1 µM, partner max 0.3 µM)",-0.0641,1,0.956,1,1,0.696,0.659,0.734,0.497,0.933
"C=CCn1c(=O)c2cnc(Nc3ccc(N4CCN(C)CC4)cc3)nc2n1-c1cccc(C(C)(C)O)n1 [AZD1775] + Nc1ccn([C@@H]2O[C@H](CO)[C@@H](O)C2(F)F)c(=O)n1 [Gemcitabine] (first compound max 1 µM, partner max 0.3 µM)",0.0462,0.965,0.738,0.828,1,0.539,0.614,0.616,0.552,0.825
"CN(CCO)CC[C@H](CSc1ccccc1)Nc1ccc(S(=O)(=O)NC(=O)c2ccc(N3CCC([C@@H](O)c4ccccc4-c4ccc(Cl)cc4)CC3)cc2)cc1S(=O)(=O)C(F)(F)F [AZD4320] + CS(=O)(=O)CCNCc1ccc(-c2ccc3ncnc(Nc4ccc(OCc5cccc(F)c5)c(Cl)c4)c3c2)o1 [Lapatinib] (first compound max 1 µM, 7x7, partner max 10 µM)",0.0097,0.931,0.975,1,1,0.548,0.264,0.806,0.939,0.198
"Cc1c2c(nn1C)CSCc1cc(n(C)n1)CSc1cc(c3ccccc3c1)OCCCc1c(C(=O)O)n(C)c3c-2c(Cl)ccc13 [AZD5991] + CC(=O)O[C@H]1C(=O)[C@@]2(C)[C@H]([C@H](OC(=O)c3ccccc3)[C@]3(O)C[C@H](OC(=O)[C@H](O)[C@@H](NC(=O)c4ccccc4)c4ccccc4)C(C)=C1C3(C)C)[C@]1(OC(C)=O)CO[C@@H]1C[C@@H]2O [Paclitaxel] (first compound max 1 µM, 7x7, partner max 3 µM)",0.018,1,0.46,0.919,0.99,0.92,0.76,0.524,0.913,0.869
"Cc1c2c(nn1C)CSCc1cc(n(C)n1)CSc1cc(c3ccccc3c1)OCCCc1c(C(=O)O)n(C)c3c-2c(Cl)ccc13 [AZD5991] + CS(=O)(=O)CCNCc1ccc(-c2ccc3ncnc(Nc4ccc(OCc5cccc(F)c5)c(Cl)c4)c3c2)o1 [Lapatinib] (first compound max 1 µM, 7x7, partner max 10 µM)",0.0129,1,0.285,0.735,0.965,0.527,0.326,0.529,0.459,0.32
"Cc1c2c(nn1C)CSCc1cc(n(C)n1)CSc1cc(c3ccccc3c1)OCCCc1c(C(=O)O)n(C)c3c-2c(Cl)ccc13 [AZD5991] + Nc1ccn([C@@H]2O[C@H](CO)[C@@H](O)C2(F)F)c(=O)n1 [Gemcitabine] (first compound max 1 µM, 7x7, partner max 0.3 µM)",-0.0066,1,0.829,0.757,1,0.731,0.455,0.543,0.565,0.811
"C[C@@H]1COCCN1c1cc(C2([S@](C)(=N)=O)CC2)nc(-c2ccnc3[nH]ccc23)n1 [AZD6738] + C1CC(C1)(C(=O)[O-])C(=O)[O-].N.N.[Pt+2] [Carboplatin] (first compound max 10 µM, 7x7, partner max 10 µM)",0.0087,0.823,0.567,0.649,0.963,0.66,0.581,0.771,0.289,0.456
"C[C@@H]1COCCN1c1cc(C2([S@](C)(=N)=O)CC2)nc(-c2ccnc3[nH]ccc23)n1 [AZD6738] + Nc1ccn([C@@H]2O[C@H](CO)[C@@H](O)C2(F)F)c(=O)n1 [Gemcitabine] (first compound max 10 µM, 7x7, partner max 0.3 µM)",0.0769,0.962,0.854,0.883,1,0.678,0.722,0.752,0.718,0.907
"C[C@@H](Nc1cc(F)cc(F)c1)c1cc(C(=O)N(C)C)cc2c(=O)cc(N3CCOCC3)oc12 [AZD8186] + C1CN(CCC1(C(=O)N[C@@H](CCO)C2=CC=C(C=C2)Cl)N)C3=NC=NC4=C3C=CN4 [AZD5363] (first compound max 10 µM, 7x7, partner max 10 µM)",0.0068,0.76,0.327,0.463,0.623,0.573,0.395,0.332,0.472,0.427
